Results as given in patent publication US20250340516A1, “Isoquinolinones as Modulators of POLRMT” (Pretzel Therapeutics, Inc., priority 2024, published 2025).

Each molecule was assayed against POLRMT (Homo sapiens (Human), UniProt O00411) (assay: homogeneous TR-FRET assay of POLRMT inhibition (mitochondrial transcription, 407 bp RNA product)). Conditions: 7.5 nM POLRMT, 15 nM TFB2M, 30 nM TFAM, 0.5 nM DNA template, 500 μM NTPs, 37° C., 60 minutes, * = aggregation of data sets, read-out: IC50 values for isoquinolinone compounds.
POLRMT, sequence (O00411 42-1230): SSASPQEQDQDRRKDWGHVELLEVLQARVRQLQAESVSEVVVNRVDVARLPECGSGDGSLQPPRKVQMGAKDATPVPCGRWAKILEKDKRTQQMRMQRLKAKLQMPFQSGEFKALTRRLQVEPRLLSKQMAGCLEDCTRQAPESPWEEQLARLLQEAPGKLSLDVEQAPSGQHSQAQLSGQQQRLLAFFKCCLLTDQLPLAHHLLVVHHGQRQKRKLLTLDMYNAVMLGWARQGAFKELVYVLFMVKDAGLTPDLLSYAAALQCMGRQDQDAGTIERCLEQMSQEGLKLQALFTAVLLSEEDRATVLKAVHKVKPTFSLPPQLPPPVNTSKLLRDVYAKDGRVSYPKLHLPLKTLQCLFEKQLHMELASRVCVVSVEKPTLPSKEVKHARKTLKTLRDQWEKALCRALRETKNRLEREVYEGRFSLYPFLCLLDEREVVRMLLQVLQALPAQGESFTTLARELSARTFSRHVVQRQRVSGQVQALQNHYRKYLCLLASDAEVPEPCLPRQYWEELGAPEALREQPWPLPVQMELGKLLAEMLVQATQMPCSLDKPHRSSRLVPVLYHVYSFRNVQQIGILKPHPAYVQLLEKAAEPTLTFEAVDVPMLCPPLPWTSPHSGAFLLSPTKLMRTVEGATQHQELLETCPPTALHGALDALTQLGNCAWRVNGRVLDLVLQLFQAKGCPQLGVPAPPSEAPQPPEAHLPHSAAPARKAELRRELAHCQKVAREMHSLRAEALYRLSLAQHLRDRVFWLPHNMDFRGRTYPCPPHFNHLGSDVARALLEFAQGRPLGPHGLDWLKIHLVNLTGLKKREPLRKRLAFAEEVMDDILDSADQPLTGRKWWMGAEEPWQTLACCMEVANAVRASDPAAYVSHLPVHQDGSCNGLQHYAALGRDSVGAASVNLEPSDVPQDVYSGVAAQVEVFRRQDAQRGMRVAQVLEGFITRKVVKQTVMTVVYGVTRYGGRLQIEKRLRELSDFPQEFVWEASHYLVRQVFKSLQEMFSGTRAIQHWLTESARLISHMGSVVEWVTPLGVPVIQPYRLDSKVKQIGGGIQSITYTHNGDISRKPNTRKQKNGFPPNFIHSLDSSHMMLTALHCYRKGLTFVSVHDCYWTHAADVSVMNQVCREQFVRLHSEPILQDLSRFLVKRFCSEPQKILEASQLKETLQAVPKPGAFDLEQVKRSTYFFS
Type: biochemical
Protocol: The inhibitory activity of the compounds of the present invention against POLRMT were determined by assays based on Bergbrede, T., et al., “An adaptable high-throughput technology enabling the identification of specific transcription modulators,” SLAC Discov., 22, 378-386 (2017).
The ability of some compounds of the present invention to inhibit POLRMT were determined in a homogeneous TR-FRET Assay using high-throughput screening in a 384-well plate format. This method is used to monitor the activity of mitochondrial transcription through measurement of its product, a 407 bp long RNA transcript. Detection of the product is facilitated by hybridization of two DNA-oligonucleotide probes to specific and adjacent sequences within the RNA product sequence. Upon annealing of the probes, two fluorophores are coupled directly to an acceptor nucleotide probe (ATTO647, 5′), or introduced via a coupled streptavidin with a biotinylated donor nucleotide probe (Europium cryptate) that is brought into sufficient proximity to serve as a fluorescence-donor-acceptor pair. Thus, a FRET signal at 665 nm is generated upon excitation at 340 nm.
Proteins used as transcription factors (POLRMT: NP_005026.3, TFAM: NP_003192.1, TFB2M: NP_071761.1) are diluted from their stocks to working concentrations of 1 μM, 20 μM and 4 μM respectively, in a dilution buffer containing 20 mM Tris-HCl (pH 8.0), 200 mM NaCl, 10% (v/v) glycerol, 1 mM Dithiothreitol (DTT), 0.5 mM EDTA.
DNA template is a pUC18 plasmid with the mitochondrial light strand promotor sequence (1-477) cloned between HindIII and BamHI sites. The DNA template is restriction linearized proximal to the promotor 3′-end (pUC-LSP).
The reaction mixture (10 uL) containing 7.5 nM POLRMT, 15 nM of TFB2M, 30 nM of TFAM, 0.5 nM of DNA template and 500 μM nucleotide triphosphate mix (NTPs) in a reaction buffer (containing 10 mM Tris-HCl (pH 7.5), 10 mM MgCl2, 40 mM NaCl, 10 mM DTT, 0.005% (w/v) Tween-20, 160 units/ml Rnase inhibitor and 0.1 mg/mL BSA) are dispensed to compounds in microplates, using a Thermo Multidrop® dispenser, and incubated at 37° C. in a VWR INCU-Line incubator for 60 minutes after mixing. No nucleotide triphosphate mix is added to negative control samples. Microplates with compounds to be tested in the assay are prepared from 10 mM compound stocks in 100% DMSO, equal amounts of DMSO without any compound are added to positive control and negative control samples.
During the incubation, a mix of the detection reagents is prepared in a buffer such that the enzymatic reaction is terminated due to chelating of Mg-ions and increased ionic strength, containing 50 mM Tris-HCl (pH 7.5), 700 mM NaCl, 20 mM EDTA, and 0.01% (w/v) Tween-20. Europium-streptavidin is pre-incubated with a 200-fold molar excess of a random sequence oligonucleotide to block unspecific binding of oligo, for two hours at ambient temperature in the dark. Afterwards, the blocked Europium-streptavidin is kept on ice until use.
At the end of the enzymatic reaction time, 5 μL detection oligo mix in the detection buffer is added, and assay plates are mixed and kept at ambient temperature for one hour, protected from light. The concentration of the Acceptor nucleotide oligo (e.g., ATTO647N-5′-[…]-3′ (SEQ ID NO: 1)) and Donor nucleotide oligo (e.g., bio-5′-AACACATCTCT(-bio)GCCAAACCCCA-bio-3′ (SEQ ID NO: 2)) in each assay well is 1 nM, and 3 nM, respectively.
After incubation with oligo mix, 5 μL of pre-blocked Europium-streptavidin reagent is dispensed to each assay well, assay plates are again mixed and kept at ambient temperature for one hour, protected from light.
The generated signal is measured with BMG Pherastar microtiter plate reader with a TRF light unit, using excitation at 340 nm, an integration time of 200 μs, and a delay time of 100 μs, before detection at 620 nm and 665 nm. The ratio of donor- and acceptor-fluorescence is used as a measure of the generated transcript product (i.e. enzymatic activity).

| SMILES | IC50 [nM] |
| --- | --- |
| Cc1ccccc1-c1c[nH]c(=O)c2cc(O[C@H](C)C(=O)N3CCN(C(N)=O)CC3)ccc12 [Example 16, (R)-4-(2-((1-oxo-4-(o-tolyl)-1,2-dihydroisoquinolin-7-yl)oxy)propanoyl)piperazine-1-carboxamide] | 100 |
| CC(=O)N1CCN(C[C@@H](C)Oc2ccc3c(-c4ccccc4C)c[nH]c(=O)c3c2)CC1 [Example 54, (R)-7-((1-(4-acetylpiperazin-1-yl)propan-2-yl)oxy)-4-(o-tolyl)isoquinolin-1(2H)-one] | 4000 |
| COCCN1CCN(C(=O)[C@@H](C)Oc2ccc3c(-c4ccccc4C)c[nH]c(=O)c3c2)CC1=O [Example 23, (R)-7-((1-(4-(2-methoxyethyl)-3-oxopiperazin-1-yl)-1-oxopropan-2-yl)oxy)-4-(o-tolyl)isoquinolin-1(2H)-one] | 300 |
| C[C@@H](Oc1ccc2c(-c3ccc(F)cc3Cl)c[nH]c(=O)c2c1)C(=O)N1CCCC(C(C)(C)C(=O)O)C1 (single isomer, unassigned) [Example 50] | 60 |
| Cc1ccccc1-c1c[nH]c(=O)c2cc(N(C)CC(=O)N[C@H](C)C(N)=O)ccc12 [Example 69, (R)-2-(2-(methyl(1-oxo-4-(o-tolyl)-1,2-dihydroisoquinolin-7-yl)amino)acetamido)propanamide] | 3000 |
| CC(=O)N(C)CCNC(=O)[C@@H](C)Oc1ccc2c(-c3ccccc3C)c[nH]c(=O)c2c1 [Example 17, (R)-N-(2-(N-methylacetamido)ethyl)-2-((1-oxo-4-(o-tolyl)-1,2-dihydroisoquinolin-7-yl)oxy)propanamide] | 2000 |
| Cc1ccccc1-c1c[nH]c(=O)c2cc(O[C@H](C)C(=O)N3CCCC(C4(C(N)=O)CC4)C3)ccc12 (single isomer, unassigned) [Example 40] | 20 |
| Cc1ccccc1-c1c[nH]c(=O)c2cc(O[C@H](C)C(=O)N3CCCCC(N(C)C)C3)ccc12 (single isomer, unassigned) [Example 76] | 2000 |
| CCN1CCN(C(=O)[C@@H](C)Oc2ccc3c(-c4ccccc4C)c[nH]c(=O)c3c2)CC1 [Example 18, (R)-7-((1-(4-ethylpiperazin-1-yl)-1-oxopropan-2-yl)oxy)-4-(o-tolyl)isoquinolin-1(2H)-one] | 200 |
| Cc1ccccc1-c1c[nH]c(=O)c2cc(O[C@H](C)C(=O)N3CCCC(CC(=O)O)C3)ccc12 (single isomer, unassigned) [Example 12] | 60 |
| Cc1ccccc1-c1c[nH]c(=O)c2cc(N(C)[C@@H](C)C(=O)N3CCC[C@H](C(=O)O)C3)ccc12 (single isomer, unassigned) [Example 7] | 200 |
| CNC1CCN(C(=O)[C@@H](C)Oc2ccc3c(-c4ccccc4C)c[nH]c(=O)c3c2)CC1 [Example 68, (R)-7-((1-(4-(methylamino)piperidin-1-yl)-1-oxopropan-2-yl)oxy)-4-(o-tolyl)isoquinolin-1(2H)-one] | 200 |
| Cc1ccccc1-c1c[nH]c(=O)c2cc(O[C@H](C)C(=O)N3CCCC(C(C)(C)C(=O)O)C3)ccc12 (single isomer, unassigned) [Example 44] | 60 |
| Cc1ccccc1-c1c[nH]c(=O)c2cc(O[C@H](C)C(=O)N3CCCC(C4(C(N)=O)CC4)C3)ccc12 (single isomer, unassigned) [Example 41] | 40 |
| N#CCOc1ccc2c(-c3ccccc3OC(F)(F)F)c[nH]c(=O)c2c1 [Example 49, 2-((1-oxo-4-(2-(trifluoromethoxy)phenyl)-1,2-dihydroisoquinolin-7-yl)oxy)acetonitrile] | > 100000 |
| CC(=O)N[C@H]1CCCN(C(=O)[C@@H](C)Oc2ccc3c(-c4ccccc4C)c[nH]c(=O)c3c2)C1 [Example 28, N-((S)-1-((R)-2-((1-oxo-4-(o-tolyl)-1,2-dihydroisoquinolin-7-yl)oxy)propanoyl)piperidin-3-yl)acetamide] | 100 |
| [2H]C([2H])([2H])c1ccccc1-c1c[nH]c(=O)c2cc(O[C@H](C)C(=O)N3CCN(C(N)=O)CC3)ccc12 [Example 74, (R)-4-(2-((4-(2-(methyl-d3)phenyl)-1-oxo-1,2-dihydroisoquinolin-7-yl)oxy)propanoyl)piperazine-1-carboxamide] | 80 |
| Cc1ccccc1-c1c[nH]c(=O)c2cc(O[C@H](C)C(=O)N3CC(C(=O)O)CC(F)(F)C3)ccc12 (single isomer, unassigned) [Example 2] | 50 |
| CCC1(C(=O)O)CCCN(C(=O)[C@@H](C)Oc2ccc3c(-c4ccccc4C)c[nH]c(=O)c3c2)C1 (single isomer, unassigned) [Example 52] | 20 |
| CC(=O)N1CC2CC1CN2C(=O)[C@@H](C)Oc1ccc2c(-c3ccc(F)cc3Cl)c[nH]c(=O)c2c1 (stereo partly drawn) [Example 6, 7-(((2R)-1-(5-acetyl-2,5-diazabicyclo[2.2.1]heptan-2-yl)-1-oxopropan-2-yl)oxy)-4-(2-chloro-4-fluorophenyl)isoquinolin-1(2H)-one] | 1000 |
| CC(=O)N(C)CCN(C)C(=O)[C@@H](C)Oc1ccc2c(-c3ccccc3C)c[nH]c(=O)c2c1 [Example 22, (R)-N-methyl-N-(2-(N-methylacetamido)ethyl)-2-((1-oxo-4-(o-tolyl)-1,2-dihydroisoquinolin-7-yl)oxy)propanamide] | 2000 |
| COc1ccc2c(-c3ccccc3C(C)O)c[nH]c(=O)c2c1 (centres unmarked) [Example 11, 4-(2-(1-hydroxyethyl)phenyl)-7-methoxyisoquinolin-1(2H)-one] | 62000 |
| CC(=O)N[C@@H]1CCCN(C(=O)[C@@H](C)Oc2ccc3c(-c4ccccc4C)c[nH]c(=O)c3c2)C1 [Example 29, N-((R)-1-((R)-2-((1-oxo-4-(o-tolyl)-1,2-dihydroisoquinolin-7-yl)oxy)propanoyl)piperidin-3-yl)acetamide] | 100 |
| Cc1ccccc1-c1c[nH]c(=O)c2cc(O[C@H](C)C(=O)N(C)CC(N)=O)ccc12 [Example 61, (R)-N-(2-amino-2-oxoethyl)-N-methyl-2-((1-oxo-4-(o-tolyl)-1,2-dihydroisoquinolin-7-yl)oxy)propanamide] | 100 |
| COCc1ccccc1-c1c[nH]c(=O)c2cc(OCC#N)ccc12 [Example 47, 2-((4-(2-(methoxymethyl)phenyl)-1-oxo-1,2-dihydroisoquinolin-7-yl)oxy)acetonitrile] | 18000 |
| Cc1ccccc1-c1c[nH]c(=O)c2cc(O[C@H](C)C(=O)N3CCC[C@H](N(C)C)C3)ccc12 [Example 32, 7-(((R)-1-((S)-3-(dimethylamino)piperidin-1-yl)-1-oxopropan-2-yl)oxy)-4-(o-tolyl)isoquinolin-1(2H)-one] | 200 |
| C[C@@H](Oc1ccc2c(-c3ccc(F)cc3Cl)c[nH]c(=O)c2c1)C(=O)N1CC(C(N)=O)CC(F)(F)C1 (single isomer, unassigned) [Example 9] | 200 |
| Cc1ccccc1-c1c[nH]c(=O)c2cc(O[C@H](C)C(=O)N3CCCC(C(C)(C)C(=O)O)C3)ccc12 (single isomer, unassigned) [Example 43] | 20 |
| COC(=O)CN(C)C(=O)[C@H](C)Oc1ccc2c(-c3ccccc3C)c[nH]c(=O)c2c1 [Example 25, methyl (S)-N-methyl-N-(2-((1-oxo-4-(o-tolyl)-1,2-dihydroisoquinolin-7-yl)oxy)propanoyl)glycinate] | > 100000 |
